According to ChEMBL document CHEMBL5532661, “Discovery of a Novel Glucagon-like Peptide-1 (GLP-1) Analogue from Bullfrog and Investigation of Its Potential for Designing GLP-1-Based Multiagonists” (J Med Chem, 2024):
The source made the active and inactive calls. No cut-off for these calls is given here. Numbered stars: 1 amine (or outer) side, 2 acyl side, 3 side chain; on linkers, the order of the positions; unused ones are H or OH. Square brackets hold non-standard residues; d marks the D form. Side chains are listed from the residue outwards. Peptide text beside a SMILES is read from it. * marks the point of attachment. C18 diacid = O=C(O)CCCCCCCCCCCCCCCCC(=O)*; γGlu = O=C(O)[C@H](CCC(=O)[*:2])N[*:1]; AEEA = NCCOCCOCC(=O)O; Aib = CC(C)(N)C(=O)O

Tests used:
[1] = molecular target: T1, Glucagon-like peptide 1 receptor (Homo sapiens, UniProt P43220); assay: Agonist activity at human GLP-1 receptor expressed in HEK293 cells assessed as cAMP level measured after 60 mins by HTRF based assay; format: functional, cell-based
T1 sequence (P43220 whole entry): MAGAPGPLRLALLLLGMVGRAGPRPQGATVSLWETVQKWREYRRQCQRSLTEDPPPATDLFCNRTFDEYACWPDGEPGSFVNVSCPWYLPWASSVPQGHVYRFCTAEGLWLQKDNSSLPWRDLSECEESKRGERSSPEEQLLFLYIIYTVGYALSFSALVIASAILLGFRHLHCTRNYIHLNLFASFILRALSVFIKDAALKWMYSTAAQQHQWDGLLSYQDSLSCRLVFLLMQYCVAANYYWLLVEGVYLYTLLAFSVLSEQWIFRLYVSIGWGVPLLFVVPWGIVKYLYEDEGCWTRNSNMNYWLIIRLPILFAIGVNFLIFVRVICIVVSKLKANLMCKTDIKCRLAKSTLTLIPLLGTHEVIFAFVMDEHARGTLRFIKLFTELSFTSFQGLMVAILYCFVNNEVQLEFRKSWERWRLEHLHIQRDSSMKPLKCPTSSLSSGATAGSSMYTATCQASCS

Glucagon receptor = Glucagon receptor (Homo sapiens, UniProt P47871); assay: Agonist activity at human GCGR expressed in HEK293 cells assessed as cAMP level measured after 60 mins by HTRF based assay; format: functional, cell-based
Chain of Glucagon receptor (P47871 whole entry): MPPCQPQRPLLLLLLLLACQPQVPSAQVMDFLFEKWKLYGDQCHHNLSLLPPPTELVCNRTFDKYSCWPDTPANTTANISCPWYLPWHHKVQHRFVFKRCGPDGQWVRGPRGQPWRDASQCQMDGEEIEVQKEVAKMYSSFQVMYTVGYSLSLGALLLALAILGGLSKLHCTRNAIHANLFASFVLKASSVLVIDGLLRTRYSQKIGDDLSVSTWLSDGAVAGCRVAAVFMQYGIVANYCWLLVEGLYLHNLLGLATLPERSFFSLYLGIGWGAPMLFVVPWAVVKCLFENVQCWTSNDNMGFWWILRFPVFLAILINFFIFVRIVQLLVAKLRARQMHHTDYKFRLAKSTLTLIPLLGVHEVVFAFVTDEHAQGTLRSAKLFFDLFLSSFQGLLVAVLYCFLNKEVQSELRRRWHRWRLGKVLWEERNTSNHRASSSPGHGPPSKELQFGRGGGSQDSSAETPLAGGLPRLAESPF

[2] = molecular target: T2, Gastric inhibitory polypeptide receptor (Homo sapiens, UniProt P48546); assay: Agonist activity at human GIPR receptor expressed in HEK293 cells assessed as cAMP level measured after 60 mins by HTRF based assay; format: functional, cell-based
T2 sequence (P48546 whole entry): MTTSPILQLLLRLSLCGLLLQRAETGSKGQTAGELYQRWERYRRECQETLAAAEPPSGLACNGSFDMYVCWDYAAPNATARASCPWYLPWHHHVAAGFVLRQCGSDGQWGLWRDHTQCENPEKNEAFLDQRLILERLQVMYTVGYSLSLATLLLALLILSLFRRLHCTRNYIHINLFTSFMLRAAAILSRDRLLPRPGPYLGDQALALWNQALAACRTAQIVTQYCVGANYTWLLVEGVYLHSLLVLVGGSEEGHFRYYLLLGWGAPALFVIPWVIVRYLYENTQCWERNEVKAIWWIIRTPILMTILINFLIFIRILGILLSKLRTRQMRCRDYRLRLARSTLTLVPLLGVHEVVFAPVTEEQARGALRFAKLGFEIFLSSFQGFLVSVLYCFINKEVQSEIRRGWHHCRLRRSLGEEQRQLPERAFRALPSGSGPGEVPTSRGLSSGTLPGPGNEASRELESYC

Mus musculus [3] = assay: Hypoglycemic effect in ICR mouse treated with 3 g/kg glucose assessed as reduction in blood glucose level at 100 nmol/kg, sc measured upto 120 mins by acute glucose lowering test; format: functional, organism-based
Mus musculus [4] = assay: Hypoglycemic effect in ICR mouse treated with 3 g/kg glucose assessed as reduction in blood glucose level at 30 nmol/kg, sc measured upto 120 mins pretreated with GLP-1R and GIPR antagonist by OGTT; format: functional, organism-based
Mus musculus [5] = assay: Anorexigenic effect in ICR mouse assessed as decrease in food intake at 30 nmol/kg, sc measured upto 72 hrs by acute food intake study; format: functional, organism-based
Mus musculus [6] = assay: Anorexigenic effect in ICR mouse assessed as decrease in food intake at 30 nmol/kg, sc measured at 48 hrs by acute food intake study; format: functional, organism-based
Mus musculus [7] = assay: Antihyperglycemic effect in DIO mouse assessed as antihyperglycemic duration by measuring blood glucose at 30 nmol/kg, sc administered twice daily measured by hypoglycemic duration assay; format: functional, organism-based
Mus musculus [8] = assay: Reduction in body weight in DIO mouse at 30 nmol/kg, sc treated every 2 and half day once measured after 21 days; format: functional; parameters: scale not given: the % may be the effect or the level left; conditions: time 21 day
Mus musculus [9] = assay: Reduction in feed intake in DIO mouse at 30 nmol/kg, sc treated twice a day measured after 21 days; format: functional, organism-based; conditions: time 21.0 day
Mus musculus [10] = assay: Reduction in serum AST in DIO mouse at 30 nmol/kg, sc treated every 2 and half day once measured after 21 days; format: functional, organism-based; conditions: time 21.0 day
Mus musculus [11] = assay: Reduction in serum ALT in DIO mouse at 30 nmol/kg, sc treated every 2 and half day once measured after 21 days; format: functional, organism-based; conditions: time 21.0 day
Mus musculus [12] = assay: Antihyperglycemic effect in non-fasted DIO mouse assessed as decrease in blood glucose at 30 nmol/kg, sc measured upto 48 hrs; format: functional, organism-based
[13] = molecular target: T1, Glucagon-like peptide 1 receptor; assay: Potency index, ratio of Semaglutide EC50 to test compound EC50 for agonist activity at human GLP-1 receptor expressed in HEK293 cells assessed as cAMP level measured after 60 mins by HTRF based assay; format: functional, cell-based; conditions: filed as agonist
Mus musculus [14] = assay: Hypoglycemic effect in ICR mouse treated with 3 g/kg glucose assessed as reduction in blood glucose level at 30 nmol/kg, sc measured upto 120 mins pretreated with GLP-1R antagonist by OGTT; format: functional, organism-based
Mus musculus [15] = assay: Anorexigenic effect in ICR mouse assessed as decrease in food intake at 10 nmol/kg, sc measured upto 72 hrs by acute food intake study; format: functional, organism-based
Mus musculus [16] = assay: Anorexigenic effect in sc dosed ICR mouse assessed as decrease in food intake measured upto 72 hrs by acute food intake study; format: functional, organism-based; conditions: dose 10-100 nmol/kg
Mus musculus [17] = assay: Antihyperglycemic effect in DIO mouse assessed as antihyperglycemic duration by measuring blood glucose at 30 nmol/kg, sc measured after 48 hrs by hypoglycemic duration assay; format: functional, organism-based
Mus musculus [18] = assay: Antihyperglycemic effect in DIO mouse assessed as prolonged antihyperglycemic duration by measuring blood glucose at 100 nmol/kg, sc; format: functional, organism-based
Mus musculus [19] = assay: Reduction in blood glucose level in non-fasting DIO mouse at 30 nmol/kg, sc treated every 2 and half day once measured after 21 days by glucose tolerance test; format: functional, organism-based; conditions: time 21.0 day
Mus musculus [20] = assay: Reduction in total fat mass in DIO mouse at 30 nmol/kg, sc treated every 2 and half day once measured after 21 days; format: functional, organism-based; conditions: time 21.0 day
Mus musculus [21] = assay: Reduction in serum triglyceride in DIO mouse at 30 nmol/kg, sc treated every 2 and half day once measured after 21 days; format: functional, organism-based; conditions: time 21.0 day
Mus musculus [22] = assay: Reduction in total cholesterol in DIO mouse at 30 nmol/kg, sc treated every 2 and half day once measured after 21 days; format: functional, organism-based; conditions: time 21.0 day
Mus musculus [23] = assay: Reduction in hepatic lipid content in DIO mouse at 30 nmol/kg, sc treated every 2 and half day once measured after 21 days by H and E staining based assay; format: functional, organism-based; conditions: time 21.0 day
Mus musculus [24] = assay: Reduction in body weight in DIO mouse at 30 nmol/kg, sc treated twice a day measured after 21 days; format: functional; parameters: scale not given: the % may be the effect or the level left; conditions: time 21 day
Mus musculus [25] = assay: Reduction in serum AST level in DIO mouse at 30 nmol/kg, sc treated twice a day measured after 21 days; format: functional, organism-based; conditions: time 21.0 day
Mus musculus [26] = assay: Reduction in serum ALT level in DIO mouse at 30 nmol/kg, sc treated twice a day measured after 21 days; format: functional, organism-based; conditions: time 21.0 day

EC50 [1] [nM] | SMILES | EC50 (Glucagon receptor) [nM] | Activity (Mus musculus [3]) | Activity (Mus musculus [5]) | Activity (Mus musculus [6]) | Activity (Mus musculus [7]) | Activity (Mus musculus [8]) [%] | Activity (Mus musculus [9]) | Activity (Mus musculus [10]) | Activity (Mus musculus [11]) | other results
0.019 | CC[C@H](C)[C@H](NC(=O)[C@H](CC(C)C)NC(=O)[C@H](Cc1c[nH]c2ccccc12)NC(=O)[C@H](CC(=O)O)NC(=O)[C@@H](NC(=O)[C@H](Cc1ccccc1)NC(=O)[C@H](CCC(=O)O)NC(=O)[C@H](CCCCNC(=O)COCCOCCNC(=O)COCCOCCNC(=O)CC[C@H](NC(=O)CCCCCCCCCCCCCCCCC(=O)O)C(=O)O)NC(=O)[C@H](C)NC(=O)[C@H](C)NC(=O)[C@H](CCC(=O)O)NC(=O)[C@H](CCC(=O)O)NC(=O)[C@H](CCC(=O)O)NC(=O)[C@H](CC(C)C)NC(=O)[C@H](Cc1ccc(O)cc1)NC(=O)[C@H](CO)NC(=O)[C@H](CO)NC(=O)[C@H](CCSC)NC(=O)[C@H](CC(=O)O)NC(=O)[C@H](CO)NC(=O)[C@@H](NC(=O)[C@H](Cc1ccccc1)NC(=O)[C@@H](NC(=O)CNC(=O)[C@H](CC(=O)O)NC(=O)C(C)(C)NC(=O)[C@@H](N)Cc1c[nH]cn1)[C@@H](C)O)[C@@H](C)O)C(C)C)C(=O)N[C@@H](CCCCN)C(=O)NCC(=O)N[C@@H](CCCNC(=N)N)C(=O)N1CCC[C@H]1C(=O)N[C@@H](C)C(N)=O (H-H[Aib]DGTFTSDMSSYLEEEAAK([AEEA-AEEA-γGlu-C18 diacid])EFVDWLIKGRPA-NH2) | – | Active | Active | Active | Active | 24.9 | – | Active | Active | Activity (Mus musculus [12]): Active; Ratio EC50 [13]: 2.8; Activity (Mus musculus [14]): inactive; Activity (Mus musculus [15]): Active; Activity (Mus musculus [16]): Dose-Dependent Effect; Activity (Mus musculus [17]): Active; Activity (Mus musculus [18]): Active; Activity (Mus musculus [19]): Active; Activity (Mus musculus [20]): Active; Activity (Mus musculus [21]): Active; Activity (Mus musculus [22]): Active; Activity (Mus musculus [23]): Active
0.075 | CCCCCCCCCCCCCCCC(=O)N[C@@H](CCC(=O)NCCCC[C@H](NC(=O)[C@H](CC(=O)O)NC(=O)[C@H](CO)NC(=O)[C@@H](NC(=O)[C@H](Cc1ccccc1)NC(=O)[C@@H](NC(=O)CNC(=O)[C@H](CCC(N)=O)NC(=O)[C@H](CO)NC(=O)[C@@H](N)Cc1c[nH]cn1)[C@@H](C)O)[C@@H](C)O)C(=O)N[C@@H](CO)C(=O)N[C@@H](CCC(=O)O)C(=O)N[C@@H](Cc1ccc(O)cc1)C(=O)N[C@@H](CC(C)C)C(=O)N[C@@H](CC(=O)O)C(=O)N[C@@H](CO)C(=O)N[C@@H](CCC(=O)O)C(=O)N[C@@H](CCCNC(=N)N)C(=O)N[C@@H](C)C(=O)N[C@@H](CCCNC(=N)N)C(=O)N[C@@H](CC(=O)O)C(=O)N[C@@H](Cc1ccccc1)C(=O)N[C@H](C(=O)N[C@@H](C)C(=O)N[C@@H](Cc1c[nH]c2ccccc12)C(=O)N[C@@H](CC(C)C)C(=O)N[C@@H](CCC(=O)O)C(=O)N[C@@H](C)C(=O)NCC(=O)NCC(=O)O)C(C)C)C(=O)O [COTADUTIDE] | 0.17 | Active | Active | – | – | – | Active | – | – | Activity (Mus musculus [24]): ~24.6%; Activity (Mus musculus [25]): Active; Activity (Mus musculus [26]): Active

SMILES | EC50 [1] [nM] | EC50 (Glucagon receptor) [nM] | Activity (Mus musculus [3]) | Activity (Mus musculus [5]) | Activity (Mus musculus [6]) | Activity (Mus musculus [7]) | Activity (Mus musculus [8]) [%] | Activity (Mus musculus [9]) | Activity (Mus musculus [10]) | Activity (Mus musculus [11]) | other results
CC[C@H](C)[C@H](NC(=O)[C@H](Cc1ccccc1)NC(=O)[C@H](C)NC(=O)C(C)(C)NC(=O)[C@H](CCC(N)=O)NC(=O)[C@H](C)NC(=O)[C@H](CCCCNC(=O)COCCOCCNC(=O)CC[C@H](NC(=O)CCCCCCCCCCCCCCCCCCC(=O)O)C(=O)O)NC(=O)[C@H](CCCCN)NC(=O)[C@H](CC(=O)O)NC(=O)[C@H](CC(C)C)NC(=O)[C@](C)(CC(C)C)NC(=O)[C@@H](NC(=O)[C@H](CO)NC(=O)[C@H](Cc1ccc(O)cc1)NC(=O)[C@H](CC(=O)O)NC(=O)[C@H](CO)NC(=O)[C@@H](NC(=O)[C@H](Cc1ccccc1)NC(=O)[C@@H](NC(=O)CNC(=O)[C@H](CCC(N)=O)NC(=O)C(C)(C)NC(=O)[C@@H](N)Cc1ccc(O)cc1)[C@@H](C)O)[C@@H](C)O)[C@@H](C)CC)C(=O)N[C@@H](CCC(=O)O)C(=O)N[C@@H](Cc1ccc(O)cc1)C(=O)N[C@@H](CC(C)C)C(=O)N[C@@H](CC(C)C)C(=O)N[C@@H](CCC(=O)O)C(=O)NCC(=O)NCC(=O)N1CCC[C@H]1C(=O)N[C@@H](CO)C(=O)N[C@@H](CO)C(=O)NCC(=O)N[C@@H](C)C(=O)N1CCC[C@H]1C(=O)N1CCC[C@H]1C(=O)N1CCC[C@H]1C(=O)N[C@@H](CO)C(N)=O | 0.041 | 0.23 | Active | Active | Active | Active | 38.5 | Active | Active | Active | EC50 [2]: 0.022 nM; Activity (Mus musculus [4]): inactive
